# Results as given in patent publication US10350315B2, “Quinoline-3-carboxamide compounds and their use in diagnosis” (Westfaelische Wihelms-Universitaet Muenster, priority 2014, dated 2019).
# How the values were obtained:
# S100A9 [1] = biological target: T1, S100A9 (Mus musculus, UniProt P31725); experiment: LPS-induced acute lung injury (ALI) mouse model, FRI of explanted lungs; type: in vivo, mice
# T1 construct: from tissue; host or cells: living mice (inflamed ear, joints) and explanted mouse heart, aorta and lungs
# T1 sequence (P31725 2-113 limits assumed): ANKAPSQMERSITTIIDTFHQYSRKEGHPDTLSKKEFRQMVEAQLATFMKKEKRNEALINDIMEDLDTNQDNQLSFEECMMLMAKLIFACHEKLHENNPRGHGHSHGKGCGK
# Experimental: FIG. 22: Accumulation of Cy5.5-CES271 in a mouse model of acute lung inflammation (ALI). (A) At different time points after the intranasal application of either 10 pg or 50 pg LPS the local and systemic levels of S100A8/S100A9 are compared to control animals. Exemplary paraffin sections of inflamed and healthy lung tissue, taken at 8 h after LPS (10 pg) application were stained for S100A9-expression. Histological data of control (upper image) and lung inflammation (lower image) confirmed local expression of these proteins. […] 50 pg LPS treated mice injected with glycine saturated Cy5.5 served as perfusion controls. (C) S100A8/S100A9 serum levels of LPS treated and control animals are correlated with the measured Mean Fluorescence Intensity over the lungs (R^2=0.69; n=19; p<0.001).
# LPS-induced lung inflammation was elicited via intranasal application of 50 pg or 10 pg of LPS. LPS from Escherichia coli 055:B5 was obtained from Sigma-Aldrich. Directly after the administration of LPS 2 nmol of tracer were injected intravenously. Glycine saturated Cy5.5 served as a perfusion control for CES271-Cy5.5, while Cy5.5-labelled rabbit IgG without relevant specificity served as a control for aS100A9-Cy5.5. Mice were either assigned to fluorescence mediated tomography (FMT) to fluorescence reflectance imaging (FRI). For FRI imaging, the mice were sacrificed at the indicated time points. Afterwards, BALF was obtained and the lungs were fixed with 1% low melt aggarose.
# 2D FRI lung imaging was performed using the Bruker FX Pro Imaging Station (Bruker Corporation). Excitation light was set to 630 nm using an appropriate bandpass filter. Emission at 700 nm was recorded using a filtre-equipped high-sensitivity (4-million-pixel) cooled charge-coupled device camera. Acquisition time was 5 s for each image.
# Mice were intravenously injected with Cy5.5-labelled CES271 (CES271-Cy5.5). The animals underwent optical imaging at various time points after injection. In our blocking experiments each mouse received 2 pmol CES271 1 h before 2 nmol of CES271-Cy5.5 were injected. […]
# S100A9 [2] = biological target: T2, S100A9 (Homo sapiens, UniProt P06702); experiment: TLR4-S100A9 ELISA: blocking of S100A9 binding to TLR4/MD2; settings: S100A9 2 μg/ml, 100 μM CES271-Cy5.5, two hours at room temperature
# T2 sequence (P06702 1-114): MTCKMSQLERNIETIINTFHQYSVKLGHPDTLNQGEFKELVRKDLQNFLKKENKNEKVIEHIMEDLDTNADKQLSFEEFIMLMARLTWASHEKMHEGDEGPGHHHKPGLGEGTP
# Experimental: FIG. 5: ELISA-based blocking study showing binding of S100A9 protein to TLR4/MD2 in the presence or absence of quinoline-3-carboxamide compounds covalently linked to a label, in this case Cy5.5-CES271.
# Cy5.5-CES271 was successfully synthesized as described in the previous example. Studies were then conducted to verify that Cy5.5-CES271 maintained strong binding affinity for S100A9. In this regard, a specific ELISA (Enyme-linked Immunosorbent Assay) was developed to analyse S100A9 binding to TLR4. In this newly developed assay, the binding of S100A9 to TLR4 can be measured.
# Briefly, TLR4/MD2 (3146-TM-050/CF, R&D Systems) was coupled to the wells of a 96-well plate and served as capturing molecule. After blocking of the unspecific binding sites by PBS/5% skim milk powder, plates were washed three times. S100A9 protein was added at a concentration of 2 μg/ml in the presence or absence of 100 μM CES271-Cy5.5 and incubated for two hours at room temperature. Unbound S100 protein was removed by washing the plates for three times, followed by the addition of a primary anti-S100A9-antibody (1 μg/ml, polyclonal, rabbit). After a washing step, the secondary anti-rabbit-IgG-antibody coupled to HRP (1 μg/ml, Cell Signalling) was added. TMB was used as substrate for HRP to quantify binding efficiency by absorbance readings at 450 nm in an ELISA reader (Anthos Mikrosysteme).
substance,measurement,setting,value
"3-ethyl-2((1E,3E,5E)-5-(3-(1-(5-ethyl-4-hydroxy-1-methyl-2-oxo-1,2-dihydroquinolin-3-yl)-1,15-dioxo-2-phenyl-5,8,11-trioxa-2,14-diazanonadecan-19-yl)-1,1-dimethyl-6,8-disulfonato-1H-benzo[e]indol-2(3H)-ylidene)penta-1,3-dien-1-yl)-1,1-dimethyl-1H-benzo[e]indol-3-ium-6,8-disulfonate [Cy5.5-CES271]",Tracer accumulation in explanted lungs of LPS treated mice,"S100A9 [1]; 3 and 6 hours after parallel LPS/tracer application, 50 pg LPS intranasal, 2 nmol i.v., n=3, p<0.01",specific tracer accumulation could clearly be delineated
same,"Ratio of tracer accumulation in the lung parenchyma, LPS treated mice",S100A9 [1]; 6 h post induction,up to 2.5
same,Correlation (R^2) of S100A8/S100A9 serum levels with Mean Fluorescence Intensity over the lungs,"S100A9 [1]; n=19, p<0.001",0.69
same,"Blocking of binding of S100A9 to TLR4/MD2 (decrease of ELISA signal, absorbance 450 nm)",S100A9 [2],markedly block
